# Where two headings read alike, the source gives them in different places. Positions of bridges follow the written chain, without caps; N, C: chain ends. Residues, ends and D or L forms follow the SMILES beside them. *: point of attachment. X2 = CC(CCC(C)C(=O)*)C(=O)OCC(=O)[C@@]12O[C@H](C3CCCCC3)O[C@@H]1C[C@H]1[C@@H]3CCC4=CC(=O)C=C[C@]4(C)[C@H]3[C@@H](O)C[C@@]12C
# Assays:
# [1] = IL-1β challenge rat model, dose-ranging study: CBC, organ weights, tolerability; type: in vivo, rats
# Experimental: IL-6 was measured in knee lavage fluid using a Luminex assay and levels were normalized to total protein in the lavage fluid (FIG. 24). Assessment of the PD inflammatory marker IL-6 in the knee joints of rats challenged with IL-1β was performed. Terminal synovial fluid was collected from all animals and analyzed by Luminex 200 for IL-6 cytokine concentrations using EMD Milliplex MAP Rat Cytokine/Chemokine Magnetic Panel ([…]-65K). […] Doses are listed as nmol/kg The masses of these doses are given below in TABLE 16. Two hours and forty-five minutes (i.e., 2.75 hrs) after administration of the test agents, animals were gently heated and blood was drawn from the tail vein for CBC analysis. Animals were then anesthetized with inhaled isoflurane and injected with 30 ng of IL-1β into the right knee (except for no IL-1β group). Four hours after administration of IL-1β (seven hours after administration of test agent) the animals were euthanized. Blood was drawn for a second CBC analysis and the right knee was lavaged for detection of IL-6 in the lavage fluid using a Luminex assay. Thymus and spleen were harvested and their organ weights determined.
# In the same animals for which IL-6 secretion was measured, CBC data (e.g., lymphocyte counts) were also analyzed (FIG. 25) at an early time-point, 2.75 hrs post administration of the test article (FIG. 25A), and at euthanasia 7 hrs post administration (FIG. 25B). All treatments were administered as described above for the measurement of IL-6 secretion.
# All treatments and test articles were administered as described above, except for an additional treatment group that received 510 nmol/kg of the peptide-drug conjugate peptide(SEQ ID NO: 105)-DMA-dCIC.
# [2] = Hydrolysis assay of peptide-drug conjugates in rat plasma (free drug by LC/MS); type: in vitro ADME; details: rat plasma, 37° C., read-out: half-life (in vitro hydrolysis, free dCIC) (converted)
# [3] = Solubility for formulation; type: physicochemical; details: aqueous formulation for systemic delivery
# Source text: This study was designed to test whether dCIC delivered by a peptide would enable local suppression of inflammation in the joint while reducing systemic exposure to dCIC compared to that obtained when dosing therapeutic levels of dCIC alone. To enable systemic delivery of dCIC (unconjugated), it was formulated in 40% propylene glycol and then heated in order to solubilize the molecule. […] The peptide-drug conjugates of the disclosure can have a water solubility that allows conjugates to be formulated for systemic delivery, wherein at least some of the drugs used in the peptide-drug conjugates may not have sufficient water solubility for systemic administration when not conjugated to peptide. The conjugates comprising those drugs can home, target, migrate to, accumulate in, bind to, be retained by, or be redirected to a cartilage of a subject.
# [4] = system: IL-6; type: in vivo, rats; details: Dex 1274 and 127 nmol/kg IV; dCIC 1274 nmol/kg IA or 127 nmol/kg IV; conjugate 127, 51 and 13 nmol/kg IV; four hours after IL-1β
# Experimental: In this example, an IL-1β Challenge rat model was used for the evaluation of peptides-drug conjugates. In this model, IL-1β is injected intra-articularly (i.e., IA) into a single knee joint to induce an inflammatory state that can be quantified by measuring IL-6 levels in joint lavage fluid (EXAMPLE 30). The primary goal of using this model was to induce a localized inflammatory state in the joint, as opposed to the systemic inflammation induced in other models, as a way to differentiate localized delivery of dCIC to the joint from systemic administration of the steroid. […] CBC counts were used to assess any reductions in various white blood cell levels, which are established markers of systemic exposure to glucocorticoids. […]
# IL-6 was measured in knee lavage fluid using a Luminex assay and levels were normalized to total protein in the lavage fluid (FIG. 24). […] Terminal synovial fluid was collected from all animals and analyzed by Luminex 200 for IL-6 cytokine concentrations using EMD Milliplex MAP Rat Cytokine/Chemokine Magnetic Panel ([sequence]-65K). […] Thymus and spleen were harvested and their organ weights determined.
# [5] = Systemic markers for glucocorticoid exposure in normal rats; type: in vivo; details: normal female Lewis rats
# Experimental: In order to evaluate markers of systemic dexamethasone exposure in normal rats, time points were selected to simulate drug administration for studies (e.g., dosing on days 10 and 11, euthanize on day 12 or dosing on days 11-14 and euthanize on day 14). […] Rats were euthanized 24 hours after the second dose, or 5 hours after the fourth dose. Body weight was measured daily. At euthanasia, liver, spleen, thymus, and kidney weights were recorded and blood was collected for CBC and serum chemistry analysis. To establish the CIA model, female Lewis rats were inoculated with an intradermal injection of bovine collagen II on day 0 and a challenge dose was administered on day 7. Ankle and knee joint diameters were measured daily. Rats were euthanized on day 10, day 12 and day 14 at which time liver, spleen, thymus, and kidney weights were recorded and blood was collected for complete blood count (CBC)/blood chemistry analysis.
# [6] = system: CIA rats
# Experimental: Arthritis was induced in 9-week-old female Lewis rats (Envigo or Charles River Laboratories) by intradermal injection while anesthetized of 400 ug bovine type II collagen (Chondrex Inc, Redmond Wash.) in 2 adjacent 200 ul (1 mg/ml) doses on day 0. Collagen is prepared for injection by dissolving at 2 mg/ml in 0.01N glacial acetic acid in sterile water and rocking at 4° C. overnight then emulsifying in Freund's incomplete adjuvant (IFA, Sigma Aldrich). To emulsify, equal volumes of collagen solution and IFA are drawn up into separate syringes, which are joined by a 3-way stopcock. While on ice, the collagen and IFA are mixed by pressing between the two syringes rapidly for 10 minutes. Quality of the emulsification is tested after 10 minutes of mixing by dropping a small amount of mixture in water. A properly emulsified solution will remain as a discrete droplet and not disperse in the water. On day 7, rats are challenged with a second intradermal injection of 100 ug of collagen in 100 ul, 1 mg/ml, collagen in IFA solution prepared fresh. Body weight and ankle diameter measurements are recorded daily from day 7 through the end of the study. Ankle diameter was measure by a single researcher using a Fowler Digitrix 2 micrometer. Three measurements of each ankle were taken of the lateral dimension at the tarsus of lightly anesthetized rats. The reported ankle diameter measurement is the mean of the three measurements.
# Arthritis was induced as described in four cohorts of 9-week-old female Lewis rats. Rats were randomly placed in treatment groups, balancing compound and dose groups across cohorts. […] Rats were dosed by tail vein injection on days 11 and 12 and euthanized on day 13 by CO2 asphyxiation. Immediately after cessation of respiratory movement, blood was collected by cardiac puncture, synovial fluid was collected from both knees, one hind limb was fixed in formalin and the alternate ankle was frozen on dry ice. Thymus, spleen, liver, and kidney weights were recorded.
# CIA Response study design.
# The aim of the study was to test the 4 conjugates with various linkers at two different doses in vivo in CIA rats to assess the following: ability to deliver sufficient dexamethasone to the joint to show functionality and potential therapeutic effect in the disease model.
# CIA was induced in female Lewis rats (as described above, see EXAMPLE 21). Body weight and ankle joint diameters were measured on day 0 and then daily from day 7 until euthanasia. […] At euthanasia, synovial fluid was collected from both knees, one hind limb was fixed in formalin and the alternate ankle was frozen on dry ice. Thymus, spleen, liver, and kidney weights were recorded. Blood samples were submitted for CBC/Chemistry analysis, and the remaining plasma was frozen.
# [7] = system: IL-6; details: 30 or 3 μg, 4 h
# Experimental: After 4 h, IL-6 levels in synovial fluid of the same knee were measured by Luminex and normalized to protein content of the knee lavage.
# [8] = system: CIA rats; type: in vivo; details: 0.2 mg/kg on study day 0 and day 1
# Experimental: A study was conducted in CIA rats to address the following: 1) functionality and duration of effect for peptide(SEQ ID NO: 105)-carbamate-Dex at 0.2 mg/kg as compared to Dex alone at the same dose; 2) functionality and duration of effect for peptide(SEQ ID NO: 105)-DMA-Dex at 0.05 mg/kg as compared to Dex alone at the same dose; 3) systemic markers of Dex exposure in rats treated with each PDC and Dex at their respective doses (FIG. 16B-FIG. 16G).
# CIA was induced as described above in EXAMPLE 21. Rats were enrolled in the study following onset of arthritis in at least one ankle and randomly assigned into one of five treatment groups (vehicle; peptide-carbamate 0.2 mg/kg; Dex 0.2 mg/kg; peptide-DMA conjugate 0.05 mg/kg; Dex 0.05 mg/kg) with 5 rats per group. Treatment was administered on study day 0 and study day 1 and rats were euthanized on study day 7. The primary read-out in this cohort was change in ankle diameter during and after treatment, as a measure of functionality and duration of effect. […] The primary read-out for this cohort was measures of systemic exposure to Dex which included thymus weight, spleen weight, total white blood cell counts, lymphocyte counts, and change in body weight.
# [9] = 1 mg/kg/day for 2 days and 4 days
# [10] = 1 mg/kg/day for 2 days or 4 days, vs vehicle and CIA rats
molecule,measurement,setting,value
"CC[C@H](C)[C@@H]1NC(=O)[C@@H]2CSSC[C@H](NC(=O)[C@H](CCCNC(=N)N)NC(=O)[C@@H](NC(=O)[C@H](CC(N)=O)NC(=O)[C@@H](NC(=O)[C@@H]3CCCN3C(=O)[C@@H](NC(=O)CNC(=O)[C@H](CO)NC(=O)CNC(=O)C(C)CCC(C)C(=O)OCC(=O)[C@@]34O[C@H](C5CCCCC5)O[C@@H]3C[C@H]3[C@@H]5CCC6=CC(=O)C=C[C@]6(C)[C@H]5[C@@H](O)C[C@@]34C)C(C)C)[C@@H](C)CC)C(C)C)C(=O)N[C@@H](CCCNC(=N)N)C(=O)NCC(=O)N[C@@H](CO)C(=O)N[C@@H](CCCNC(=N)N)C(=O)N[C@@H](CC(=O)O)C(=O)N[C@H]3CSSC[C@H](NC(=O)[C@H](CCCNC(=N)N)NC(=O)[C@H](CO)NC(=O)[C@H](CC(N)=O)NC1=O)C(=O)N[C@@H](Cc1c[nH]cn1)C(=O)N[C@H](C(=O)N[C@H](C(=O)N1CCC[C@H]1C(=O)O)[C@@H](C)O)CSSC[C@H](NC(=O)[C@@H]1CCCN1C(=O)[C@H](CC(=O)O)NC(=O)[C@H](CC(C)C)NC3=O)C(=O)N[C@@H](CCCNC(=N)N)C(=O)N[C@@H](CCCNC(=N)N)C(=O)N[C@@H](C)C(=O)NCC(=O)N[C@@H](CCSC)C(=O)N[C@@H](CCCNC(=N)N)C(=O)N[C@@H](Cc1ccccc1)C(=O)NCC(=O)N[C@@H](CCCNC(=N)N)C(=O)N2 (stereo partly drawn) [Compound 46, peptide(SEQ ID NO: 105)-DMA-dCIC] (X2-GSGVPINVRCRGSRDCLDPCRRAGMRFGRCINSRCHCTP-OH; disulfide 10-30, 16-35, 20-37 (inferred); C-terminus assumed)",monocytes (CBC),[1]; 2.75 hours post-treatment,dose-dependent increase
same,neutrophils (CBC),"[1]; 2.75 hours post-treatment, higher doses",dose-dependent increase
same,effect on lymphocyte counts as compared to Dex and dCIC alone,"[1]; 2.75 hrs post administration, equimolar dose of 127 nmol/kg",less effect on lymphocyte counts
same,spleen and thymus weights at euthanasia,[1]; 7 hours post administration,minimal effect on the weight of both organs
same,mortality,[1]; highest dose group (1274 nmol/kg IV),died within 30 minutes of dosing
same,CBC counts and all observations,[1]; lower effective doses (13-51 nmol/kg),normal
same,mortality,"[1]; second highest dose group (510 nmol/kg), within 30-90 minutes of dosing",three out of five animals
same,half-life at 0.25 mg/mL,"[2]; first assay, acetonitrile extraction of dCIC",8.5 h
same,half-life at 0.25 mg/mL,"[2]; second assay, ethyl acetate extraction of dCIC",5 h
same,solubility,[3],soluble in PBS
same,"IL-6 concentration in knee lavage fluid normalized to total protein, compared to vehicle",[4],clear reduction in IL-6 concentration
Dexamethasone sodium phosphate [DexSP],monocytes (CBC),[1]; 2.75 hours post-treatment,dose dependent decrease
same,Lymphocyte counts as compared to vehicle control,"[1]; 2.75 hrs post administration, Dex both doses, dCIC IA or IV",substantial reduction in lymphocyte counts
same,Lymphocyte counts at euthanasia,"[1]; 7 hours post administration, all dose levels",lower at 7 hours as compared to 2.75 hours
same,other liver enzymes,[5]; 1 mg/kg/day,no significant changes
same,"red blood cell (RBC) count, hematocrit, neutrophil, monocyte or eosinophil counts",[5]; 1 mg/kg/day,no significant changes
same,absolute lymphocyte count,[5]; [9],decreased
same,total white blood cell (WBC) count,[5]; [9],decreased
same,Body weight,[5]; 1 mg/kg/day for 2 days or 4 days,declined
same,spleen weight,[5]; [10],significantly decreased
same,thymus weight,[5]; [10],significantly decreased
same,Nucleated RBCs,[5]; 4 doses of 1 mg/kg/day,detected in four of the five rats
same,spleen weight,[6]; 0.2 mg/kg and 0.5 mg/kg dose,reduction
same,thymus weight,[6]; 0.2 mg/kg and 0.5 mg/kg dose,reduction
same,total body weight,[6]; 0.2 mg/kg and 0.5 mg/kg dose,reduction
same,change in median ankle diameter between day 11 and day 13 as compared to vehicle,[6]; 0.2 mg/kg dose,did not reach statistical significance
same,reduction in thymus weight as compared to vehicle,[6]; 0.2 mg/kg dose groups,statistically significant
same,IL-6 secretion in synovial fluid,[7]; administered IA (co-injected with IL-1b),no decrease
same,IL-6 secretion in synovial fluid,[7]; administered IV,some decrease
same,ankle inflammation / ankle diameter as compared to vehicle,[8],highly effective in reducing ankle diameter to baseline levels

# — US20210252159A1, “CONJUGATES OF CARTILAGE-HOMING PEPTIDES” (priority 2018, published 2021)
